pIC50: −log10 of the molar value.

Assay type in all cases: biochemical
For experiment [1], the target named is T1, PIM1 (Homo sapiens, UniProt P11309). The experiment can be described thus: KinaseGlo Pim1 ATP depletion assay. In a few lines: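 IC50 is derived from residual ATP measured by KinaseGlo Plus luminescence once about half the ATP was consumed. Final conditions were 20 μM ATP, 40 μM BAD peptide and 2.5 nM kinase in HEPES pH 7.5 buffer with MgCl2, DTT and BSA, plus 2.5% DMSO. Compound and enzyme were premixed 15 min before ATP addition.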

A further experiment has as its target PIM2 (Homo sapiens, UniProt Q9P1W9). The experiment can be described thus: KinaseGlo Pim2 ATP depletion assay. In a few lines:
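Compound sat 15 min with enzyme and BAD peptide before ATP was added; final levels 5 nM PIM2, 10 μM peptide, 4 μM ATP, 2.5% DMSO, pH 7.5 HEPES buffer with MgCl2, DTT, BSA. Stopped near 50% ATP consumption; remaining ATP measured by luciferase luminescence.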

For another experiment, the target named is PIM3 (Homo sapiens, UniProt Q86V86). The experiment in a line: Pim 3 AlphaScreen assay (high ATP). The following applies: read-out: Pim3 IC50. In a few lines:
(§1)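 IC50 values rest on detection of phosphorylated Bad peptide: after a ~2 h kinase reaction, an EDTA stop buffer containing anti-phospho Ser/Thr antibody, Protein A and streptavidin AlphaScreen beads was added and read after overnight dark incubation. ATP was high (11-125× Km), with 2.5% DMSO in pH 7.5 Hepes buffer containing MgCl2, BSA, Tween-20 and DTT.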

Experiment [2] deals with T1, PIM1. The experiment in a line: Pim 1 AlphaScreen assay (high ATP). The note with it: read-out: Pim1 IC50. In a few lines:
as §1

Chain of PIM2 (Q9P1W9 whole entry): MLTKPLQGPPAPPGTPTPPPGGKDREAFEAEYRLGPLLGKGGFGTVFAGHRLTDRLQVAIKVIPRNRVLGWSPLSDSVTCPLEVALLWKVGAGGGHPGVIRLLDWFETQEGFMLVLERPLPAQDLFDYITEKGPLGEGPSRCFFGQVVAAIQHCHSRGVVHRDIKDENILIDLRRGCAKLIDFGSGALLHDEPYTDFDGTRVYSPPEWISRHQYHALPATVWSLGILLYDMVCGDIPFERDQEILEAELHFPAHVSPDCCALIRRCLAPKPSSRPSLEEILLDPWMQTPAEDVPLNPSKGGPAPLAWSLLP
T1 sequence (P11309 whole entry): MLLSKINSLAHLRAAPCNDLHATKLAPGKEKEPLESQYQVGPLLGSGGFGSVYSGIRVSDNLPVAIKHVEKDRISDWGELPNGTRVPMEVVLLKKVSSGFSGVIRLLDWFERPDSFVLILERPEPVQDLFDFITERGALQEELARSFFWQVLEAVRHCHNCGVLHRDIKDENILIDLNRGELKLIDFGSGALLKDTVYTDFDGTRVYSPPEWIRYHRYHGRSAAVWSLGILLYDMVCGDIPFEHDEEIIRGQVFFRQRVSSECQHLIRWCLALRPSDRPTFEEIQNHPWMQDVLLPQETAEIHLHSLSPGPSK

Take `C=C1[C@@H](O)C[C@@H](c2ccncc2NC(=O)c2nc(-c3ccccc3)cnc2N)OC12CC2` [Example 5, 3-amino-N-(4-((5S,7S)-7-hydroxy-8-methylene-4-oxaspiro[2.5]octan-5-yl)pyridin-3-yl)-6-phenylpyrazine-2-carboxamide]: the negative logarithm of the IC50 (pIC50) is 7.59 at PIM1 [1] and 6.60 against PIM2.
Turning to `C[C@H]1O[C@@H](c2ccncc2NC(=O)c2nc(-c3ccccc3)ncc2N)C[C@@H](O)[C@]1(C)O` [Example 32, 5-amino-N-(4-((2R,4R,5S,6R)-4,5-dihydroxy-5,6-dimethyltetrahydro-2H-pyran-2-yl)pyridin-3-yl)-2-phenylpyrimidine-4-carboxamide], the results for the pIC50 on PIM1 [1] and at PIM2 were 8.30 and 7.36, respectively.
The like results for `Nc1ncc(-c2ccccc2)nc1C(=O)Nc1cnccc1[C@H]1C[C@@H](O)[C@H](O)[C@@H](CCl)O1` [Example 36, 3-amino-N-(4-((2R,4R,5S,6S)-6-(chloromethyl)-4,5-dihydroxytetrahydro-2H-pyran-2-yl)pyridin-3-yl)-6-phenylpyrazine-2-carboxamide] were, in that order, 9.00 and 8.10.
The like results for `CC[C@H]1O[C@@H](c2ccncc2NC(=O)c2nc(-c3ccccc3)ncc2N)C[C@@H](O)[C@@H]1O` [Example 39, 5-amino-N-(4-((2R,4R,5S,6R)-6-ethyl-4,5-dihydroxytetrahydro-2H-pyran-2-yl)pyridin-3-yl)-2-phenylpyrimidine-4-carboxamide] were, in that order, 8.40 and 7.40.
In the same order, the values of `C[C@H]1O[C@@H](c2ccncc2NC(=O)c2nc(-c3ccccc3)cnc2N)[C@H](F)[C@@H](O)[C@]1(C)O` [Example 58, 3-amino-N-(4-((2S,3R,4S,5S,6R)-3-fluoro-4,5-dihydroxy-5,6-dimethyltetrahydro-2H-pyran-2-yl)pyridin-3-yl)-6-phenylpyrazine-2-carboxamide] are 8.05 and 6.56.
On to `C[C@@H]1O[C@H](c2ccncc2NC(=O)c2nc(-c3ccccc3)cnc2N)[C@@H](F)[C@H](O)[C@@]1(C)O` [Example 63, 3-amino-N-(4-((2R,3S,4R,5R,6S)-3-fluoro-4,5-dihydroxy-5,6-dimethyltetrahydro-2H-pyran-2-yl)pyridin-3-yl)-6-phenylpyrazine-2-carboxamide], for which the negative-log IC50 (pIC50) at PIM1 [1] was 8.22; at PIM2, 6.03.
Regarding `C[C@H]1O[C@@H](c2ccncc2NC(=O)c2nc(-c3ccccc3)cnc2N)C[C@@H](O)[C@]1(C)O` [Example 84, 3-amino-N-(4-((2R,4R,5S,6R)-4,5-dihydroxy-5,6-dimethyltetrahydro-2H-pyran-2-yl)pyridin-3-yl)-6-phenylpyrazine-2-carboxamide], the pIC50 was 9.00 against PIM1 [1] and 7.48 on PIM2.
As for `C[C@@H]1O[C@H](c2ccncc2NC(=O)c2nc(-c3ccccc3)cnc2N)C[C@H](O)[C@@]1(C)O` [Example 86, 3-amino-N-(4-((2S,4S,5R,6S)-4,5-dihydroxy-5,6-dimethyltetrahydro-2H-pyran-2-yl)pyridin-3-yl)-6-phenylpyrazine-2-carboxamide], the negative-log IC50 (pIC50) against PIM1 [1] was 8.30; on PIM2 it was 6.79.
In the same order, the values of `CC[C@]1(O)[C@H](O)C[C@H](c2ccncc2NC(=O)c2nc(-c3c(F)cccc3F)ncc2N)O[C@@H]1C` [Example 143, 5-amino-2-(2,6-difluorophenyl)-N-(4-((2R,4R,5S,6R)-5-ethyl-4,5-dihydroxy-6-methyltetrahydro-2H-pyran-2-yl)pyridin-3-yl)pyrimidine-4-carboxamide] are 8.89 and 8.46.
As for `Nc1ncc(-c2ccccc2)nc1C(=O)Nc1cnccc1[C@H]1C[C@@H](O)[C@@]2(O)CCCC[C@H]2O1` [Example 173, 3-amino-N-(4-((2R,4R,4aS,8aR)-4,4a-dihydroxyoctahydro-2H-chromen-2-yl)pyridin-3-yl)-6-phenylpyrazine-2-carboxamide], the negative logarithm of the IC50 (pIC50) at PIM1 [1] was 8.66; against PIM2, 7.80.
The like results for `Nc1ncc(-c2ccccc2)nc1C(=O)Nc1cnccc1[C@@H]1C[C@H](O)[C@]2(O)CCCC[C@@H]2O1` [Example 176, 3-amino-N-(4-((2S,4S,4aR,8aS)-4,4a-dihydroxyoctahydro-2H-chromen-2-yl)pyridin-3-yl)-6-phenylpyrazine-2-carboxamide] were, in that order, 7.20 and 5.74.
In the case of `O=C(Nc1cnccc1[C@H]1C[C@@H](O)[C@@]2(O)CCCC[C@H]2O1)c1c[nH]cc(-c2ccccc2)c1=O` [Example 178, N-(4-((2R,4R,4aS,8aR)-4,4a-dihydroxyoctahydro-2H-chromen-2-yl)pyridin-3-yl)-4-oxo-5-phenyl-1,4-dihydropyridine-3-carboxamide], the pIC50 against PIM1 [1] is 6.81; against PIM2, 5.66.
The like results for `Nc1ncc(-c2ccccc2)nc1C(=O)Nc1cnccc1[C@@H]1C[C@H](O)[C@]2(O)CCC[C@@H]2O1` [Example 186, 3-amino-N-(4-((2S,4S,4aR,7aS)-4,4a-dihydroxyoctahydrocyclopenta[b]pyran-2-yl)pyridin-3-yl)-6-phenylpyrazine-2-carboxamide] were, in that order, 6.80 and 5.50.
The like results for `Nc1ncc(-c2ccccc2)nc1C(=O)Nc1cnccc1[C@H]1C[C@@H](O)[C@@]2(O)CCC[C@H]2O1` [Example 195, 3-amino-N-(4-((2R,4R,4aS,7aR)-4,4a-dihydroxyoctahydrocyclopenta[b]pyran-2-yl)pyridin-3-yl)-6-phenylpyrazine-2-carboxamide] were, in that order, 8.66 and 7.92.
For the compound `O=C1CC[C@H]2O[C@@H](c3ccncc3NC(=O)c3ccc(F)c(-c4c(F)cccc4F)n3)C[C@@H](O)[C@@H]2N1` [Example 196, 6-(2,6-difluorophenyl)-5-fluoro-N-(4-((2R,4R,4aS,8aR)-4-hydroxy-6-oxooctahydro-2H-pyrano[3,2-b]pyridin-2-yl)pyridin-3-yl)picolinamide], the negative-log IC50 (pIC50) at PIM1 [1] is 8.47; against PIM2 it was 7.97.
The like results for `N[C@@H]1C[C@H](c2ccncc2NC(=O)c2ccc(F)c(-c3c(F)cccc3F)n2)O[C@@H]2CCC[C@]12O` [Example 210, N-(4-((2R,4R,4aS,7aR)-4-amino-4a-hydroxyoctahydrocyclopenta[b]pyran-2-yl)pyridin-3-yl)-6-(2,6-difluorophenyl)-5-fluoropicolinamide] were, in that order, 9.30 and 8.62.
In the same order, the values of `Nc1cnc(-c2c(F)cccc2F)nc1C(=O)Nc1cnccc1[C@H]1C[C@@H](N)[C@@]2(O)CCC[C@H]2O1` [Example 213, 5-amino-N-(4-((2R,4R,4aS,7aR)-4-amino-4a-hydroxyoctahydrocyclopenta[b]pyran-2-yl)pyridin-3-yl)-2-(2,6-difluorophenyl)pyrimidine-4-carboxamide] are 8.41 and 8.20.
For `C[C@H]1O[C@@H](c2ccncc2NC(=O)c2ccc(F)c(-c3c(F)cccc3F)n2)C[C@@H](N)[C@]1(C)O` [Example 219, N-(4-((2R,4R,5S,6R)-4-amino-5-hydroxy-5,6-dimethyltetrahydro-2H-pyran-2-yl)pyridin-3-yl)-6-(2,6-difluorophenyl)-5-fluoropicolinamide], the pIC50 is 8.85 at PIM3 and 10.05 on PIM1 [2].
For the compound `N[C@@H]1C[C@H](c2ccncc2NC(=O)c2ccc(F)c(-c3c(F)cccc3F)n2)O[C@@H]2CCC[C@H]12` [Example 224, N-(4-((2R,4R,4aR,7aR)-4-aminooctahydrocyclopenta[b]pyran-2-yl)pyridin-3-yl)-6-(2,6-difluorophenyl)-5-fluoropicolinamide], the pIC50 at PIM3 was 8.39; on PIM1 [2] it was 10.00.
The like results for `N[C@H]1C[C@@H](c2ccncc2NC(=O)c2csc(-c3c(F)cccc3F)n2)O[C@H]2CCC[C@H]21` [Example 230, N-(4-((2S,4S,4aS,7aS)-4-aminooctahydrocyclopenta[b]pyran-2-yl)pyridin-3-yl)-2-(2,6-difluorophenyl)thiazole-4-carboxamide] were, in that order, 6.32 and 8.17.
The like results for `Nc1cc(F)c(-c2c(F)cccc2F)nc1C(=O)Nc1cnccc1[C@H]1C[C@@H](N)[C@@]2(O)CCCC[C@H]2O1` [Example 238, 3-amino-N-(4-((2R,4R,4aS,8aR)-4-amino-4a-hydroxyoctahydro-2H-chromen-2-yl)pyridin-3-yl)-6-(2,6-difluorophenyl)-5-fluoropicolinamide] were, in that order, 9.22 and 10.10.
The like results for `COc1cc(F)c(-c2nc(C(=O)Nc3cnccc3[C@H]3C[C@@H](N)[C@](C)(O)[C@@H](C)O3)ccc2F)c(F)c1` [Example 242, N-(4-((2R,4R,5S,6R)-4-amino-5-hydroxy-5,6-dimethyltetrahydro-2H-pyran-2-yl)pyridin-3-yl)-6-(2,6-difluoro-4-methoxyphenyl)-5-fluoropicolinamide] were, in that order, 9.10 and 10.40.
